1 compound from patent US11767305B2, “Advantageous benzofuran compositions for mental disorders or enhancement” (Tactogen Inc, priority 2020, dated 2023) can be followed below.

One experiment addresses 5-HT1BR (Homo sapiens (Human), UniProt P28222). Kind of experiment: 5-HT1BR cAMP secondary messenger agonist assay (HitHunter, CHO-K1). Format: cell-based. The source says:
The 5-HT1BR cAMP secondary messenger agonist assay used a panel of CHO-K1 cell lines stably expressing non-tagged GPCRs that endogenously signal through cAMP. Hit Hunter® cAMP assays monitored the activation of a GPCR via Gi and Gs secondary messenger signaling in a homogenous, non-imaging assay format using DiscoverX Enzyme Fragment Complementation (EFC) with β-galactosidase as the functional endpoint.
The enzyme was split into two complementary portions: Enzyme Acceptor (EA) and Enzyme Donor (ED). Exogenously introduced ED fused to cAMP (ED-cAMP) competed with endogenously generated cAMP for binding to an anti-cAMP-specific antibody. Active β-galactosidase was formed by complementation of exogenous EA to any unbound ED-cAMP.
Cell lines were expanded from freezer stocks according to standard procedures. Cells were seeded in a total volume of 20 μL into white walled, 384-well microplates and incubated at 37° C. for the appropriate time prior to testing. cAMP modulation was determined using the DiscoverX HitHunter cAMP XS+ assay.
For agonist determination, cells were incubated with sample (in the presence of EC80 forskolin to induce response if measuring Gi secondary messenger signaling). Media was aspirated from cells and replaced with 15 μL 2:1 HBSS/10 mM Hepes:cAMP XS+ Ab reagent. Intermediate dilution of sample stocks was performed to generate 4×sample in assay buffer (optionally containing 4×EC80 forskolin). 5 μL of 4×sample was added to cells and incubated at 37° C. or room temperature for 30 or 60 minutes, as appropriate. Final assay vehicle concentration was 1%.

Experiment [1] deals with serotonin (5-HT) transporter (SERT) (Rattus norvegicus (Rat), UniProt P31652). Kind of experiment: Rat synaptosome SERT [3H]5-HT uptake inhibition assay. As to conditions: Inhibition of [3H]5-HT Uptake at SERT IC50 (nM), 5 nM [3H]5-HT.
In experiment [2] the target is human 5-HT transporter (hSERT) (Homo sapiens (Human), UniProt P31645). Kind of experiment: Human serotonin transporter  assay ([3H]imipramine radioligand, CHO cells). Format: binding. Conditions: SERT IC50 (μM), 2 nM [3H]imipramine. The method, then: Benzofuran derivatives were evaluated for inhibiting the human 5-HT transporter (hSERT) as expressed in CHO cells using an antagonist radioligand assay (Tatsumi, M. et al. (1999), Eur. J Pharmacol., 368: 277-283). […] Test compounds were assayed in three trials at […], and 0.94868 μM.

The structures appear in SMILES notation.

As usually defined, the EC50 is the concentration giving half of the maximal effect. Broadly, the IC50 is the point on the concentration scale where inhibition reaches its midpoint. For the compound `CN[C@H](C)Cc1ccc2ccoc2c1` [Compound R-6-MAPB, (R)-1-(benzofuran-6-yl)-N-methylpropan-2-amine], the “Hill Coef.” value at 5-HT1BR is 1.14. For the same compound, the concentration giving a half-maximal response (EC50) on 5-HT1BR (5-HT1BR EC50 (μM)) and at 5-HT1BR (5HT1B Agonist (μM)) was 1.48 µM throughout. For the same compound, the IC50 in experiment [1] was determined as 623 ± 31.2 nM; in experiment [2], 24 µM.
